Target: T1, Recombinant His6-tagged IDE (Homo sapiens, UniProt P14735)
T1 construct: made in house; host or cells: E. coli Rosetta 2 (DE3) pLysS, plasmid pTrcHis-A
T1 sequence (P14735 42-1019): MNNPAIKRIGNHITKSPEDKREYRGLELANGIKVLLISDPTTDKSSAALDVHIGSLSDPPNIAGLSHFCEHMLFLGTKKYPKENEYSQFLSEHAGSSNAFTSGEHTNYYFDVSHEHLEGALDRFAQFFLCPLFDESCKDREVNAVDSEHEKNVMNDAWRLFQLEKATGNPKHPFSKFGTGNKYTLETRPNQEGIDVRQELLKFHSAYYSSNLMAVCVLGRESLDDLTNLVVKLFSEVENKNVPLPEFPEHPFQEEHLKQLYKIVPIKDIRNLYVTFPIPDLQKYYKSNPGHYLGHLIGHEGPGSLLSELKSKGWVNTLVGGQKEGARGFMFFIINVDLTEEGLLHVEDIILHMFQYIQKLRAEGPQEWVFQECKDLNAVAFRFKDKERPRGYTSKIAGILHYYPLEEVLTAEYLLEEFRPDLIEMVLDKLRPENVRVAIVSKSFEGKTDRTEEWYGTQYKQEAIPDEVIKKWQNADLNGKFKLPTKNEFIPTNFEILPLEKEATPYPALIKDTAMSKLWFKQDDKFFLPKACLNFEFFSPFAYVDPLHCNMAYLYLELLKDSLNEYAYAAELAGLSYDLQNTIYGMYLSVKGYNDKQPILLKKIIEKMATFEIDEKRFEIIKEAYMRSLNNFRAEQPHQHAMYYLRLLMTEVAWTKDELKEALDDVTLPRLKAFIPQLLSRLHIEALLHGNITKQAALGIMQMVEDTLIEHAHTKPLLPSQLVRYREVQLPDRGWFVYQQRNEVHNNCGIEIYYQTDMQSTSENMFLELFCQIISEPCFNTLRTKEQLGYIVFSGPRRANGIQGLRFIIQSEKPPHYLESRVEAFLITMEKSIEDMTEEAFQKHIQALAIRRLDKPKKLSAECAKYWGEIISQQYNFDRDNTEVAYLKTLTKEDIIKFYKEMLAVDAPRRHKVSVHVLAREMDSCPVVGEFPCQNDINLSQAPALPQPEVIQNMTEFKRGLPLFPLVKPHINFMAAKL
Experiment: IDE protease activity assay with fluorogenic peptide substrate Mca-RPPGFSAFK(Dnp)-OH
Assay type: biochemical
Details: inhibitor 20 μM final; purified recombinant His6-tagged IDE proteins
Protocol: Recombinant His6-tagged IDE and IDE-A479L were purified by Ni(II)-affinity chromatography (IMAC sepharose beads, GE Healthcare®) according to the manufacturer's instructions. The cell pellets were resuspended in pH 8.0 buffer containing 50 mM phosphate, 300 mM NaCl, 10 mM imidazole, 1% Triton X-100 and 1 mM tris(2-carboxyethyl)phosphine hydrochloride (TCEP), and were lysed by probe sonication for 4 min at <4° C., followed by clearing of cell debris by centrifugation at 10,000 g for 25 min at 4° C. The supernatant was incubated with Ni(II)-doped IMAC resin (2 mL) for 3 h at 4° C. The resin was washed twice with the cell resuspension/lysis buffer, and three times with pH 8.0 buffer containing 50 mM phosphate, 300 mM NaCl, 50 mM imidazole and 1 mM TCEP. Elution was performed in 2 mL aliquots by raising the imidazole concentration to 250 mM and subsequently to 500 mM in the previous buffer. The fractions were combined and the buffer was exchanged to the recommended IDE buffer (R&D) using spin columns with 100 KDa molecular weight cut off membranes (Millipore). Protein yields were typically ˜10 μg/L, and >90% purity based on gel electrophoresis analysis (Coomassie stained).

NCCCC[C@@H]1NC(=O)/C=C/C(=O)N[C@H](C(N)=O)CCCCNC(=O)[C@@H](Cc2ccc(C(=O)c3ccccc3)cc2)NC(=O)[C@H](CC2CCCCC2)NC1=O [6bK]
IDE-specific protease activity as assessed by inhibition of degradation of peptide substrate Mca-RPPGFSAFK(Dnp)-OH: > 95%
